# According to US11414387B2, “Oxoacridinyl acetic acid derivatives and methods of use” (Stingthera, Inc., priority 2017, dated 2022):
# Target: STING protein (Homo sapiens (Human), UniProt Q86WV6, H232R)
# Assay: Cell based reporter assay of IRF activation (IRF-luciferase), THP1-dual-KI R232
# Conditions: read-out: THP1-dual-KI R232_IRF(Luciferase)_Activity Maximum measured (%)
# From the text: Briefly, THP-1 monocytes were transfected and selected for stable integration of 2 reporter constructs. Clones incorporating stably integrated vectors were further selected by antibiotic resistance to blastocidin and zeocin. The reporter constructs included: (1) firefly luciferase reporter gene under the control of an ISG54 promoter fused to five interferon (IFN)-stimulated response elements to measure IRF transcription factor binding activity and (2) secreted embryonic alkaline phosphatase reporter gene under transcription control of an IFN-beta minimal promoter fused to 5 copies of the NFkB consensus transcriptional response element and 3 copies of the c-Rel binding site.
# The resulting THP-1 cell line was further modified to incorporate 3 amino acid point mutations (H71R A230G Q293R). This modification of the native TMEM173 gene in THP-1 cells (HAQ) was designed to produce a cell reporter that expressed the most common allelic variant in the human population (THP-1 R232, available from InvivoGen). Alternatively, the TMEM173 gene was knocked out to provide a congenic control to counter-screen for compound activation that was independent of the STING protein (THP-1 STING KO).
# Once cell lines were established, reporter assay protocols were developed and optimized to screen small molecule compounds for agonist activity. Assay optimization for efficacy and Z′ value included titration of the following parameters:
# • 1. Cell pre-activation with PMA • 2. Cell seeding density • 3. DMSO tolerance • 4. Media selection • 5. FBS concentration • 6. Incubation time • 7. Co-Assessment of cell viability by CTG assay • 8. Appropriate HPE and ZPE controls • 9. Dose Response Titration Final Assay SOP Conditions • 1. No pre-activation with PMA • 2. 5×10^4 cells/well in 96 well plate format • 3. <0.5% DMSO • 4. […] 10% FBS • 6. 14-18 hr incubation • 7. Cell Titer Glo reagent (Promega) following supernatant removal • 8.
# STING protein, sequence (Q86WV6 whole entry H232R): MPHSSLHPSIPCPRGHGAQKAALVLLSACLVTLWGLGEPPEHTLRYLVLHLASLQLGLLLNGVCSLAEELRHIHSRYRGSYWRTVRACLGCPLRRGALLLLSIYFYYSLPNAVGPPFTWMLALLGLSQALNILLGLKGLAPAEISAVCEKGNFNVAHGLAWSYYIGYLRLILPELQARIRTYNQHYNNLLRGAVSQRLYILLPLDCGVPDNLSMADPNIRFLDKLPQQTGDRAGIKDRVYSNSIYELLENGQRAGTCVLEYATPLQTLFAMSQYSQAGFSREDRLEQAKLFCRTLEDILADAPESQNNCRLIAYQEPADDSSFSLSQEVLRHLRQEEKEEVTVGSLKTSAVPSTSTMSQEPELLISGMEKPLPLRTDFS
row,Compound,Emax
1,COc1cc2c(=O)c3ccc(Cl)c(OC)c3n(CC(=O)O)c2cc1C(C)C [Compound 318],5 to 25%
2,CN(C)c1c(Cl)ccc2c(=O)c3ccc(Nc4ccccc4)cc3n(CC(=O)O)c12 [Compound 332],> 50%
3,CSc1c(Cl)ccc2c(=O)c3ccc(Nc4cnccn4)cc3n(CC(=O)O)c12 [Compound 291],< 5%
4,O=C(O)Cn1c2ccccc2c(=O)c2ccc(Cl)c(OCCO)c21 [Compound 328],< 5%
5,CN(Cc1ccccc1)c1c(Cl)ccc2c(=O)c3ccccc3n(CC(=O)O)c12 [Compound 310],5 to 25%
6,COc1c(Cl)ccc2c(=O)c3ccc(Nc4cccc(O)c4)cc3n(CC(=O)O)c12 [Compound 235],< 5%
7,CC(C)c1ccc2c(=O)c3ccc(Cl)c(OC[C@@H](C)O)c3n(CC(=O)O)c2c1 [Compound 327],< 5%
8,COc1c(Cl)ccc2c(=O)c3ccc(Nc4cccc5ccccc45)cc3n(CC(=O)O)c12 [Compound 297],> 50%
9,O=C(O)Cn1c2cc(-c3cccc(F)c3)ccc2c(=O)c2ccc(Cl)c(Cl)c21 [Compound 152],5 to 25%

# The next lines start with the values.
row,Emax,Compound
1,> 50%,CSc1c(Cl)ccc2c(=O)c3ccc(Br)cc3n(CC(=O)O)c12 [Compound 309]
2,> 50%,COc1c(Cl)ccc2c(=O)c3ccc(C(C)(C)C)cc3n(CC(=O)NS(C)(=O)=O)c12 [Compound 262]
3,5 to 25%,COc1cccc2c(=O)c3ccc(Cl)c(OC)c3n(CC(=O)O)c12 [Compound 333]
4,> 50%,COc1c(Cl)cc(O)c2c(=O)c3ccccc3n(CC(=O)O)c12 [Compound 314]
5,> 50%,CCN(C)c1c(Cl)ccc2c(=O)c3ccc(C)cc3n(CC(=O)O)c12 [Compound 307]
6,25 to 50%,Cc1ccc2c(=O)c3ccc(Cl)c(OCC4CC4)c3n(CC(=O)O)c2c1 [Compound 325]
7,< 5%,CC(=O)COc1c(Cl)ccc2c(=O)c3ccccc3n(CC(=O)O)c12 [Compound 312]

# Target: hSTING-WT (Homo sapiens (Human), UniProt Q86WV6, H232R)
# Assay: Radiometric filtration binding competition assay, hSTING-WT
# Conditions: not given
# hSTING-WT, sequence (Q86WV6 140-379 H232R): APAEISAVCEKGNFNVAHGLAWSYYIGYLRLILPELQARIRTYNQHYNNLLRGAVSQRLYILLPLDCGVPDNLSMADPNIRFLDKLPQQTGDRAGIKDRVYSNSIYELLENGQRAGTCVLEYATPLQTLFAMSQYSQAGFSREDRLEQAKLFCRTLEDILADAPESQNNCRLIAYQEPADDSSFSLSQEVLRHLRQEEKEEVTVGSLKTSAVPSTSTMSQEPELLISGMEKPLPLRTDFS
row,Compound,IC50
1,COc1cc2c(=O)c3ccc(Cl)c(OC)c3n(CC(=O)O)c2cc1C(C)C [Compound 318],100 to 300 µM
2,CN(C)c1c(Cl)ccc2c(=O)c3ccc(Nc4ccccc4)cc3n(CC(=O)O)c12 [Compound 332],< 20 µM
3,CSc1c(Cl)ccc2c(=O)c3ccc(Nc4cnccn4)cc3n(CC(=O)O)c12 [Compound 291],< 20 µM
4,O=C(O)Cn1c2ccccc2c(=O)c2ccc(Cl)c(OCCO)c21 [Compound 328],> 300 µM
5,CN(Cc1ccccc1)c1c(Cl)ccc2c(=O)c3ccccc3n(CC(=O)O)c12 [Compound 310],100 to 300 µM
6,COc1c(Cl)ccc2c(=O)c3ccc(Nc4cccc(O)c4)cc3n(CC(=O)O)c12 [Compound 235],< 20 µM
7,CC(C)c1ccc2c(=O)c3ccc(Cl)c(OC[C@@H](C)O)c3n(CC(=O)O)c2c1 [Compound 327],> 300 µM
8,COc1c(Cl)ccc2c(=O)c3ccc(Nc4cccc5ccccc45)cc3n(CC(=O)O)c12 [Compound 297],< 20 µM
9,O=C(O)Cn1c2cc(-c3cccc(F)c3)ccc2c(=O)c2ccc(Cl)c(Cl)c21 [Compound 152],20 to 100 µM

# The remaining lines, values ahead:
row,IC50,Compound
1,20 to 100 µM,CSc1c(Cl)ccc2c(=O)c3ccc(Br)cc3n(CC(=O)O)c12 [Compound 309]
2,20 to 100 µM,COc1c(Cl)ccc2c(=O)c3ccc(C(C)(C)C)cc3n(CC(=O)NS(C)(=O)=O)c12 [Compound 262]
3,> 300 µM,COc1cccc2c(=O)c3ccc(Cl)c(OC)c3n(CC(=O)O)c12 [Compound 333]
4,> 300 µM,COc1c(Cl)cc(O)c2c(=O)c3ccccc3n(CC(=O)O)c12 [Compound 314]
5,20 to 100 µM,CCN(C)c1c(Cl)ccc2c(=O)c3ccc(C)cc3n(CC(=O)O)c12 [Compound 307]
6,100 to 300 µM,Cc1ccc2c(=O)c3ccc(Cl)c(OCC4CC4)c3n(CC(=O)O)c2c1 [Compound 325]
7,> 300 µM,CC(=O)COc1c(Cl)ccc2c(=O)c3ccccc3n(CC(=O)O)c12 [Compound 312]

# Target: mSTING (Mus musculus, UniProt Q3TBT3)
# Assay: Radiometric filtration binding competition assay, mSTING
# Conditions: not given
row,Compound,IC50
1,COc1cc2c(=O)c3ccc(Cl)c(OC)c3n(CC(=O)O)c2cc1C(C)C [Compound 318],> 300 µM
2,CN(C)c1c(Cl)ccc2c(=O)c3ccc(Nc4ccccc4)cc3n(CC(=O)O)c12 [Compound 332],< 20 µM
3,CSc1c(Cl)ccc2c(=O)c3ccc(Nc4cnccn4)cc3n(CC(=O)O)c12 [Compound 291],< 20 µM
4,O=C(O)Cn1c2ccccc2c(=O)c2ccc(Cl)c(OCCO)c21 [Compound 328],> 300 µM
5,CN(Cc1ccccc1)c1c(Cl)ccc2c(=O)c3ccccc3n(CC(=O)O)c12 [Compound 310],> 300 µM
6,COc1c(Cl)ccc2c(=O)c3ccc(Nc4cccc(O)c4)cc3n(CC(=O)O)c12 [Compound 235],< 20 µM
7,CC(C)c1ccc2c(=O)c3ccc(Cl)c(OC[C@@H](C)O)c3n(CC(=O)O)c2c1 [Compound 327],> 300 µM
8,COc1c(Cl)ccc2c(=O)c3ccc(Nc4cccc5ccccc45)cc3n(CC(=O)O)c12 [Compound 297],< 20 µM
9,O=C(O)Cn1c2cc(-c3cccc(F)c3)ccc2c(=O)c2ccc(Cl)c(Cl)c21 [Compound 152],20 to 100 µM

# The remaining lines, values ahead:
row,IC50,Compound
1,20 to 100 µM,CSc1c(Cl)ccc2c(=O)c3ccc(Br)cc3n(CC(=O)O)c12 [Compound 309]
2,< 20 µM,COc1c(Cl)ccc2c(=O)c3ccc(C(C)(C)C)cc3n(CC(=O)NS(C)(=O)=O)c12 [Compound 262]
3,> 300 µM,COc1cccc2c(=O)c3ccc(Cl)c(OC)c3n(CC(=O)O)c12 [Compound 333]
4,100 to 300 µM,COc1c(Cl)cc(O)c2c(=O)c3ccccc3n(CC(=O)O)c12 [Compound 314]
5,20 to 100 µM,CCN(C)c1c(Cl)ccc2c(=O)c3ccc(C)cc3n(CC(=O)O)c12 [Compound 307]
6,100 to 300 µM,Cc1ccc2c(=O)c3ccc(Cl)c(OCC4CC4)c3n(CC(=O)O)c2c1 [Compound 325]
7,> 300 µM,CC(=O)COc1c(Cl)ccc2c(=O)c3ccccc3n(CC(=O)O)c12 [Compound 312]

# Target: hSTING-R232 (Homo sapiens (Human), UniProt Q86WV6, H232R)
# Assay: STING differential scanning fluorimetry (DSF) assay, WT human STING
# Conditions: WT (R232) human STING aa140-379, net shift in melting temperature
# hSTING-R232, sequence (Q86WV6 140-379 H232R): as above
row,Compound,WT_DSF_hSWAT Tm Shift (° C.)
1,COc1cc2c(=O)c3ccc(Cl)c(OC)c3n(CC(=O)O)c2cc1C(C)C [Compound 318],"C (“C” = 2-7° C,)"
2,CN(C)c1c(Cl)ccc2c(=O)c3ccc(Nc4ccccc4)cc3n(CC(=O)O)c12 [Compound 332],D (“D” > 7° C.)
3,CSc1c(Cl)ccc2c(=O)c3ccc(Nc4cnccn4)cc3n(CC(=O)O)c12 [Compound 291],D (“D” > 7° C.)
4,O=C(O)Cn1c2ccccc2c(=O)c2ccc(Cl)c(OCCO)c21 [Compound 328],B (“B” = 0-2° C.)
5,CN(Cc1ccccc1)c1c(Cl)ccc2c(=O)c3ccccc3n(CC(=O)O)c12 [Compound 310],A (“A” < 0° C.)
6,COc1c(Cl)ccc2c(=O)c3ccc(Nc4cccc(O)c4)cc3n(CC(=O)O)c12 [Compound 235],D (“D” > 7° C.)
7,CC(C)c1ccc2c(=O)c3ccc(Cl)c(OC[C@@H](C)O)c3n(CC(=O)O)c2c1 [Compound 327],"C (“C” = 2-7° C,)"
8,COc1c(Cl)ccc2c(=O)c3ccc(Nc4cccc5ccccc45)cc3n(CC(=O)O)c12 [Compound 297],D (“D” > 7° C.)
9,O=C(O)Cn1c2cc(-c3cccc(F)c3)ccc2c(=O)c2ccc(Cl)c(Cl)c21 [Compound 152],"C (“C” = 2-7° C,)"

# More lines, now with the values ahead:
row,WT_DSF_hSWAT Tm Shift (° C.),Compound
1,D (“D” > 7° C.),CSc1c(Cl)ccc2c(=O)c3ccc(Br)cc3n(CC(=O)O)c12 [Compound 309]
2,D (“D” > 7° C.),COc1c(Cl)ccc2c(=O)c3ccc(C(C)(C)C)cc3n(CC(=O)NS(C)(=O)=O)c12 [Compound 262]
3,B (“B” = 0-2° C.),COc1cccc2c(=O)c3ccc(Cl)c(OC)c3n(CC(=O)O)c12 [Compound 333]
4,"C (“C” = 2-7° C,)",COc1c(Cl)cc(O)c2c(=O)c3ccccc3n(CC(=O)O)c12 [Compound 314]
5,D (“D” > 7° C.),CCN(C)c1c(Cl)ccc2c(=O)c3ccc(C)cc3n(CC(=O)O)c12 [Compound 307]
6,"C (“C” = 2-7° C,)",Cc1ccc2c(=O)c3ccc(Cl)c(OCC4CC4)c3n(CC(=O)O)c2c1 [Compound 325]
7,B (“B” = 0-2° C.),CC(=O)COc1c(Cl)ccc2c(=O)c3ccccc3n(CC(=O)O)c12 [Compound 312]

# Target: mSTING-R232 (Mus musculus, UniProt Q3TBT3)
# Assay: STING differential scanning fluorimetry (DSF) assay, mouse STING
# Conditions: net shift in melting temperature
row,Compound,MOUSE DSF_6xHIS-SUMO Tm Shift (° C.)
1,COc1cc2c(=O)c3ccc(Cl)c(OC)c3n(CC(=O)O)c2cc1C(C)C [Compound 318],B (“B” = 0-5° C.)
2,CN(C)c1c(Cl)ccc2c(=O)c3ccc(Nc4ccccc4)cc3n(CC(=O)O)c12 [Compound 332],D (“D” > 15° C.)
3,CSc1c(Cl)ccc2c(=O)c3ccc(Nc4cnccn4)cc3n(CC(=O)O)c12 [Compound 291],D (“D” > 15° C.)
4,O=C(O)Cn1c2ccccc2c(=O)c2ccc(Cl)c(OCCO)c21 [Compound 328],C (“C” = 5-15° C.)
5,CN(Cc1ccccc1)c1c(Cl)ccc2c(=O)c3ccccc3n(CC(=O)O)c12 [Compound 310],A (“A” < 0° C.)
6,COc1c(Cl)ccc2c(=O)c3ccc(Nc4cccc(O)c4)cc3n(CC(=O)O)c12 [Compound 235],D (“D” > 15° C.)
7,CC(C)c1ccc2c(=O)c3ccc(Cl)c(OC[C@@H](C)O)c3n(CC(=O)O)c2c1 [Compound 327],C (“C” = 5-15° C.)
8,COc1c(Cl)ccc2c(=O)c3ccc(Nc4cccc5ccccc45)cc3n(CC(=O)O)c12 [Compound 297],D (“D” > 15° C.)
9,O=C(O)Cn1c2cc(-c3cccc(F)c3)ccc2c(=O)c2ccc(Cl)c(Cl)c21 [Compound 152],C (“C” = 5-15° C.)

# More lines, now with the values ahead:
row,MOUSE DSF_6xHIS-SUMO Tm Shift (° C.),Compound
1,C (“C” = 5-15° C.),CSc1c(Cl)ccc2c(=O)c3ccc(Br)cc3n(CC(=O)O)c12 [Compound 309]
2,D (“D” > 15° C.),COc1c(Cl)ccc2c(=O)c3ccc(C(C)(C)C)cc3n(CC(=O)NS(C)(=O)=O)c12 [Compound 262]
3,B (“B” = 0-5° C.),COc1cccc2c(=O)c3ccc(Cl)c(OC)c3n(CC(=O)O)c12 [Compound 333]
4,C (“C” = 5-15° C.),COc1c(Cl)cc(O)c2c(=O)c3ccccc3n(CC(=O)O)c12 [Compound 314]
5,D (“D” > 15° C.),CCN(C)c1c(Cl)ccc2c(=O)c3ccc(C)cc3n(CC(=O)O)c12 [Compound 307]
6,C (“C” = 5-15° C.),Cc1ccc2c(=O)c3ccc(Cl)c(OCC4CC4)c3n(CC(=O)O)c2c1 [Compound 325]
7,B (“B” = 0-5° C.),CC(=O)COc1c(Cl)ccc2c(=O)c3ccccc3n(CC(=O)O)c12 [Compound 312]
